Assay results taken from paper PMC5218480 (PLoS ONE, 2017).

System: MV-4-11 cells
Test: Gene expression microarray analysis (Affymetrix PrimeView) and GSEA
Format: cell-based, human
Set-up: RFU PODN (11730768_x_at) / Fold change /veh PODN (11730768_x_at) / RFU LINC00158 (11744669_a_at) / Fold change /veh LINC00158 (11744669_a_at) / RFU DUSP10 (11751237_a_at) / Fold change /veh DUSP10 (11751237_a_at) / RFU ID3 (11757404_x_at) / Fold change /veh ID3 (11757404_x_at) / RFU PLEKHG5 (11737974_s_at) / Fold change /veh PLEKHG5 (11737974_s_at) / RFU LRRC4B (11730491_at) / Fold change /veh LRRC4B (11730491_at) / RFU GIMAP4 (11747438_a_at) / Fold change /veh GIMAP4 (11747438_a_at) / RFU KRT8 (11758183_x_at) / Fold change /veh KRT8 (11758183_x_at) / RFU CNN1 (11734310_a_at) / Fold change /veh CNN1 (11734310_a_at) / RFU VPS37D (11726825_at) / Fold change /veh VPS37D (11726825_at) / RFU C10orf10 (11716522_x_at) / Fold change /veh C10orf10 (11716522_x_at) / RFU KIR2DL2 /// KIR2DL4 /// KIR2DL5A /// KIR2DL5B /// KIR2DS1 /// KIR2DS2 /// KIR2DS3 /// KIR2DS4 /// KIR3DL3 /// KIR3DL3 /// KIR3DS1 (11738374_at) / Fold change /veh KIR2DL2 /// KIR2DL4 /// KIR2DL5A /// KIR2DL5B /// KIR2DS1 /// KIR2DS2 /// KIR2DS3 /// KIR2DS4 /// KIR3DL3 /// KIR3DL3 /// KIR3DS1 (11738374_at) / RFU C1QL1 (11718748_at) / Fold change /veh C1QL1 (11718748_at) / RFU TMPRSS4 (11747572_a_at) / Fold change /veh TMPRSS4 (11747572_a_at) / RFU HAMP (11756126_x_at) / Fold change /veh HAMP (11756126_x_at) / RFU RNFT2 (11725882_a_at) / Fold change /veh RNFT2 (11725882_a_at) / RFU NR4A2 (11747474_a_at) / Fold change /veh NR4A2 (11747474_a_at) / RFU ABCC12 (11746883_a_at) / Fold change /veh ABCC12 (11746883_a_at) / RFU TMEM136 (11760407_x_at) / Fold change /veh TMEM136 (11760407_x_at) / RFU CLDN22 /// WWC2 (11732394_at) / Fold change /veh CLDN22 /// WWC2 (11732394_at) / RFU HLA-DPB1 (11760878_x_at) / Fold change /veh HLA-DPB1 (11760878_x_at) / RFU SPINT1 (11716480_a_at) / Fold change /veh SPINT1 (11716480_a_at) / RFU GAP43 (11754022_s_at) / Fold change /veh GAP43 (11754022_s_at) / RFU A4GNT (11735810_at) / Fold change /veh A4GNT (11735810_at) / RFU PRB3 (11715151_x_at) / Fold change /veh PRB3 (11715151_x_at) / RFU TUBB4B (11761932_at) / Fold change /veh TUBB4B (11761932_at) / RFU CAPN14 (11732068_a_at) / Fold change /veh CAPN14 (11732068_a_at) / RFU TMCC2 (11721928_a_at) / Fold change /veh TMCC2 (11721928_a_at) / RFU IRGQ (11745062_a_at) / Fold change /veh IRGQ (11745062_a_at) / RFU FAM174B (11720279_a_at) / Fold change /veh FAM174B (11720279_a_at) / RFU TMPRSS4 (11748680_a_at) / Fold change /veh TMPRSS4 (11748680_a_at) / RFU FAM212B (11763350_a_at) / Fold change /veh FAM212B (11763350_a_at) / RFU PLEKHG5 (11743358_a_at) / Fold change /veh PLEKHG5 (11743358_a_at) / RFU ZSCAN30 (11745921_a_at) / Fold change /veh ZSCAN30 (11745921_a_at) / RFU CMKLR1 (11741424_a_at) / Fold change /veh CMKLR1 (11741424_a_at) / RFU LOC101060620 /// MAPK8IP1 (11723275_at) / Fold change /veh LOC101060620 /// MAPK8IP1 (11723275_at) / RFU SPTSSB (11747773_x_at) / Fold change /veh SPTSSB (11747773_x_at) / RFU PRSS12 (11739890_at) / Fold change /veh PRSS12 (11739890_at) / RFU BIN1 (11741810_x_at) / Fold change /veh BIN1 (11741810_x_at) / RFU WNT11 (11732464_a_at) / Fold change /veh WNT11 (11732464_a_at) / RFU C10orf10 (11716521_a_at) / Fold change /veh C10orf10 (11716521_a_at) / RFU C5orf56 (11738089_at) / Fold change /veh C5orf56 (11738089_at) / RFU CYB561 (11721691_x_at) / Fold change /veh CYB561 (11721691_x_at) / RFU ANKRD19P (11752326_a_at) / Fold change /veh ANKRD19P (11752326_a_at) / RFU OR2T12 /// OR2T33 /// OR2T8 (11738714_s_at) / Fold change /veh OR2T12 /// OR2T33 /// OR2T8 (11738714_s_at) / RFU VCAN (11748164_a_at) / Fold change /veh VCAN (11748164_a_at) / RFU JSRP1 (11732532_at) / Fold change /veh JSRP1 (11732532_at) / RFU KRTAP10-11 (11738290_x_at) / Fold change /veh KRTAP10-11 (11738290_x_at) / RFU MYO3A (11730013_a_at) / Fold change /veh MYO3A (11730013_a_at) / RFU EBF3 (11725865_a_at) / Fold change /veh EBF3 (11725865_a_at) / RFU CAMK2N1 (11719241_x_at) / Fold change /veh CAMK2N1 (11719241_x_at) / RFU C5orf56 (11738088_a_at) / Fold change /veh C5orf56 (11738088_a_at) / RFU OLFML3 (11715873_a_at) / Fold change /veh OLFML3 (11715873_a_at) / RFU LOC100653217 /// NTM (11731650_a_at) / Fold change /veh LOC100653217 /// NTM (11731650_a_at) / RFU MAPK11 (11762145_a_at) / Fold change /veh MAPK11 (11762145_a_at) / RFU FIZ1 (11724087_x_at) / Fold change /veh FIZ1 (11724087_x_at) / RFU OASL (11726364_x_at) / Fold change /veh OASL (11726364_x_at) / RFU SOX15 (11748057_x_at) / Fold change /veh SOX15 (11748057_x_at) / RFU CD79A (11719716_a_at) / Fold change /veh CD79A (11719716_a_at) / RFU HIST1H1D (11736915_at) / Fold change /veh HIST1H1D (11736915_at) / RFU CASKIN2 (11723855_a_at) / Fold change /veh CASKIN2 (11723855_a_at) / RFU LOC730098 (11760151_x_at) / Fold change /veh LOC730098 (11760151_x_at) / RFU OR4N2 (11742367_at) / Fold change /veh OR4N2 (11742367_at) / RFU PRRT2 (11749266_a_at) / Fold change /veh PRRT2 (11749266_a_at) / RFU SNX32 (11753110_a_at) / Fold change /veh SNX32 (11753110_a_at) / RFU CDHR5 (11726645_a_at) / Fold change /veh CDHR5 (11726645_a_at) / RFU RCAN1 (11760418_a_at) / Fold change /veh RCAN1 (11760418_a_at) / RFU FAM167A (11723789_a_at) / Fold change /veh FAM167A (11723789_a_at) / RFU FAM26E (11764081_at) / Fold change /veh FAM26E (11764081_at) / RFU ISYNA1 (11749810_s_at) / Fold change /veh ISYNA1 (11749810_s_at) / RFU ACY1 (11761880_at) / Fold change /veh ACY1 (11761880_at) / RFU 11764098_at / Fold change /veh 11764098_at / RFU SAMD14 (11745864_x_at) / Fold change /veh SAMD14 (11745864_x_at) / RFU NPB (11741838_a_at) / Fold change /veh NPB (11741838_a_at) / RFU TMPRSS6 (11731388_a_at) / Fold change /veh TMPRSS6 (11731388_a_at) / RFU KRTAP10-2 (11738614_at) / Fold change /veh KRTAP10-2 (11738614_at) / RFU ARHGAP8 /// PRR5-ARHGAP8 (11727945_x_at) / Fold change /veh ARHGAP8 /// PRR5-ARHGAP8 (11727945_x_at) / RFU KRTAP5-7 /// NADSYN1 (11734609_at) / Fold change /veh KRTAP5-7 /// NADSYN1 (11734609_at) / RFU RASL12 (11751679_a_at) / Fold change /veh RASL12 (11751679_a_at) / RFU CDKN2B (11736163_a_at) / Fold change /veh CDKN2B (11736163_a_at) / RFU PRF1 (11729649_at) / Fold change /veh PRF1 (11729649_at) / RFU, ZNF638 /// ZNF638-IT1 / Fold change vs veh, ZNF638 /// ZNF638-IT1 / RFU, PANK3 / Fold change vs veh, PANK3 / RFU, SH3YL1 / Fold change vs veh, SH3YL1 / RFU, ZEB2 / Fold change vs veh, ZEB2 / RFU, NRIP1 / Fold change vs veh, NRIP1 / RFU, PTTG1IP / Fold change vs veh, PTTG1IP / RFU, CAPN2 / Fold change vs veh, CAPN2 / RFU, MED14 / Fold change vs veh, MED14 / RFU, SNORA58 / Fold change vs veh, SNORA58 / RFU, C1orf63 / Fold change vs veh, C1orf63 / RFU, LRRFIP1 / Fold change vs veh, LRRFIP1 / RFU, NDUFAF7 / Fold change vs veh, NDUFAF7 / RFU, SLC12A2 / Fold change vs veh, SLC12A2 / RFU, IBTK / Fold change vs veh, IBTK / RFU, ESF1 / Fold change vs veh, ESF1 / Fold change vs veh, TMEM50B / RFU, TAOK1 / Fold change vs veh, TAOK1 / RFU, ACBD3 / Fold change vs veh, ACBD3 / RFU, TMA16 / Fold change vs veh, TMA16 / RFU, RWDD3 / Fold change vs veh, RWDD3 / RFU, BCAT1 / Fold change vs veh, BCAT1 / RFU, EDEM3 / Fold change vs veh, EDEM3 / RFU, TMEM33 / Fold change vs veh, TMEM33 / RFU, WDR75 / Fold change vs veh, WDR75 / RFU, AHCTF1 / Fold change vs veh, AHCTF1 / RFU, TFRC / Fold change vs veh, TFRC / RFU, ZDHHC17 / Fold change vs veh, ZDHHC17 / RFU, NOM1 / Fold change vs veh, NOM1 / RFU, ARL8B / Fold change vs veh, ARL8B / RFU, ZBTB11 / Fold change vs veh, ZBTB11 / RFU, TAMM41 / Fold change vs veh, TAMM41 / RFU, KIAA1704 /// LOC100996395 / Fold change vs veh, KIAA1704 /// LOC100996395 / RFU, ING1 / Fold change vs veh, ING1 / RFU, TRMT61B / Fold change vs veh, TRMT61B / RFU, FUBP3 / Fold change vs veh, FUBP3 / RFU, TP53 / Fold change vs veh, TP53 / RFU, TNKS2 / Fold change vs veh, TNKS2 / RFU, ZFP14 / Fold change vs veh, ZFP14 / RFU, ACTR2 / Fold change vs veh, ACTR2 / RFU, PPP3R1 / Fold change vs veh, PPP3R1 / RFU, PIK3R1 / Fold change vs veh, PIK3R1 / RFU, HNRNPA1 / Fold change vs veh, HNRNPA1 / RFU, RNF170 / Fold change vs veh, RNF170 / RFU, ZNF28 / Fold change vs veh, ZNF28 / RFU, RNGTT / Fold change vs veh, RNGTT / RFU, OGT / Fold change vs veh, OGT / RFU, BRD1 / Fold change vs veh, BRD1 / RFU, MARS / Fold change vs veh, MARS / RFU, ZNF655 / Fold change vs veh, ZNF655 / RFU, FAHD1 / Fold change vs veh, FAHD1 / RFU, BDP1 / Fold change vs veh, BDP1 / RFU, LRRCC1 / Fold change vs veh, LRRCC1 / RFU, ARID1A / Fold change vs veh, ARID1A / RFU, ZNF146 / Fold change vs veh, ZNF146 / RFU, ZNF330 / Fold change vs veh, ZNF330 / RFU, GPN3 / Fold change vs veh, GPN3 / RFU, C9orf123 / Fold change vs veh, C9orf123 / RFU, N4BP2L2 / Fold change vs veh, N4BP2L2 / RFU, ARFIP1 / Fold change vs veh, ARFIP1 / RFU, FAM179B / Fold change vs veh, FAM179B / RFU, BCL10 / Fold change vs veh, BCL10 / RFU, UHRF1BP1L / Fold change vs veh, UHRF1BP1L / RFU, BET1 / Fold change vs veh, BET1 / RFU, CNOT2 / Fold change vs veh, CNOT2 / RFU, ZNF268 / Fold change vs veh, ZNF268 / Fold change vs veh, ZNF507 / RFU, DGCR2 / Fold change vs veh, DGCR2 / RFU, WDSUB1 / Fold change vs veh, WDSUB1 / Fold change vs veh, HSP90B1 /// MIR3652 / RFU, ADSS / Fold change vs veh, ADSS / RFU, GK / Fold change vs veh, GK / RFU, ZNF148 / Fold change vs veh, ZNF148 / RFU, TAF9 / Fold change vs veh, TAF9 / RFU, SLC1A5 / Fold change vs veh, SLC1A5 / RFU, SLMO2 / Fold change vs veh, SLMO2 / RFU, ABCC4 / Fold change vs veh, ABCC4 / RFU, LOC101060439 /// RAP1B / Fold change vs veh, LOC101060439 /// RAP1B / RFU, RFX7 / Fold change vs veh, RFX7 / RFU, GTPBP10 / Fold change vs veh, GTPBP10 / RFU, CNEP1R1 / Fold change vs veh, CNEP1R1 / RFU, BIVM-ERCC5 /// ERCC5 / Fold change vs veh, BIVM-ERCC5 /// ERCC5 / RFU, ILF3 / Fold change vs veh, ILF3 / RFU 11762660_at / Fold change /veh 11762660_at / RFU VCAN (11757783_s_at) / Fold change /veh VCAN (11757783_s_at) / RFU DDX43 (11728927_at) / Fold change /veh DDX43 (11728927_at) / RFU KRT8 (11758188_x_at) / Fold change /veh KRT8 (11758188_x_at) / RFU NKD1 (11759106_at) / Fold change /veh NKD1 (11759106_at) / RFU SRD5A1 (11742802_a_at) / Fold change /veh SRD5A1 (11742802_a_at) / RFU TPSAB1 /// TPSB2 (11721975_s_at) / Fold change /veh TPSAB1 /// TPSB2 (11721975_s_at) / RFU GSTM3 (11746129_a_at) / Fold change /veh GSTM3 (11746129_a_at) / RFU IL23R (11737362_x_at) / Fold change /veh IL23R (11737362_x_at) / RFU TMEM51 (11727254_a_at) / Fold change /veh TMEM51 (11727254_a_at) / RFU PIWIL2 (11732686_x_at) / Fold change /veh PIWIL2 (11732686_x_at) / RFU ORM1 (11744905_x_at) / Fold change /veh ORM1 (11744905_x_at) / RFU CCDC152 (11743942_at) / Fold change /veh CCDC152 (11743942_at) / RFU ECM1 (11717891_a_at) / Fold change /veh ECM1 (11717891_a_at) / RFU IL23R (11748794_a_at) / Fold change /veh IL23R (11748794_a_at) / RFU TNFAIP8L3 (11732012_x_at) / Fold change /veh TNFAIP8L3 (11732012_x_at) / RFU MBOAT4 (11741988_at) / Fold change /veh MBOAT4 (11741988_at) / RFU 11764193_at / Fold change /veh 11764193_at / RFU TMEM53 (11763286_at) / Fold change /veh TMEM53 (11763286_at) / RFU MAGEB2 (11727129_at) / Fold change /veh MAGEB2 (11727129_at) / RFU TMEM200A (11744735_a_at) / Fold change /veh TMEM200A (11744735_a_at) / RFU CCDC152 (11751479_a_at) / Fold change /veh CCDC152 (11751479_a_at) / RFU FAM211A (11726209_a_at) / Fold change /veh FAM211A (11726209_a_at) / RFU RGS16 (11746705_a_at) / Fold change /veh RGS16 (11746705_a_at) / RFU VCAN (11755009_s_at) / Fold change /veh VCAN (11755009_s_at) / RFU RHOB (11743442_s_at) / Fold change /veh RHOB (11743442_s_at) / RFU RGS16 (11720943_a_at) / Fold change /veh RGS16 (11720943_a_at) / RFU RGS16 (11720944_at) / Fold change /veh RGS16 (11720944_at) / RFU, VPS4B / Fold change vs veh, VPS4B / RFU, CREB1 / Fold change vs veh, CREB1 / RFU, DNAJC13 / Fold change vs veh, DNAJC13 / RFU, GNAQ / Fold change vs veh, GNAQ / RFU, CDK5R1 / Fold change vs veh, CDK5R1 / RFU, ZRANB3 / Fold change vs veh, ZRANB3 / RFU, CUL4A / Fold change vs veh, CUL4A / RFU, CCNY / Fold change vs veh, CCNY / RFU, UFL1 / Fold change vs veh, UFL1 / RFU, COG3 / Fold change vs veh, COG3 / RFU, DIAPH2 / Fold change vs veh, DIAPH2 / RFU, SKA2 / Fold change vs veh, SKA2 / RFU, AFF3 / Fold change vs veh, AFF3 / RFU, LMF1 / Fold change vs veh, LMF1 / RFU, IPO11 / Fold change vs veh, IPO11 / RFU, DFFB / Fold change vs veh, DFFB / RFU, FOXP1 / Fold change vs veh, FOXP1 / RFU, CARD8 / Fold change vs veh, CARD8 / RFU, STRN3 / Fold change vs veh, STRN3 / RFU, ADK / Fold change vs veh, ADK / RFU, RASSF2 / Fold change vs veh, RASSF2 / RFU, WIPF1 / Fold change vs veh, WIPF1 / RFU, LARP1B / Fold change vs veh, LARP1B / RFU, RASA1 / Fold change vs veh, RASA1 / RFU, RB1 / Fold change vs veh, RB1 / RFU, PPFIA1 / Fold change vs veh, PPFIA1 / RFU, MAT2A / Fold change vs veh, MAT2A / RFU, CCT5 / Fold change vs veh, CCT5 / RFU, WDR92 / Fold change vs veh, WDR92 / RFU, CUX1 / Fold change vs veh, CUX1 / RFU, TTC7A / Fold change vs veh, TTC7A / RFU, TMEM135 / Fold change vs veh, TMEM135 / RFU, DEPTOR / Fold change vs veh, DEPTOR / RFU, CPM / Fold change vs veh, CPM / RFU, DNAJB6 / Fold change vs veh, DNAJB6 / RFU, CACNA2D3 / Fold change vs veh, CACNA2D3 / RFU, DTX4 / Fold change vs veh, DTX4 / RFU, TFCP2 / Fold change vs veh, TFCP2 / RFU, GMCL1 /// GMCL1P1 / Fold change vs veh, GMCL1 /// GMCL1P1 / RFU, AEBP2 / Fold change vs veh, AEBP2 / RFU, SNHG1 /// SNORD22 /// SNORD25 /// SNORD26 /// SNORD27 /// SNORD28 /// SNORD29 /// SNORD31 / Fold change vs veh, SNHG1 /// SNORD22 /// SNORD25 /// SNORD26 /// SNORD27 /// SNORD28 /// SNORD29 /// SNORD31 / Fold change (Aza/veh), C12orf56 (ProbeSet 11735607_a_at) / Fold change (ACY-1035/veh), C12orf56 (ProbeSet 11735607_a_at) / Fold change (Aza/veh), FGFR1OP (ProbeSet 11751329_s_at) / Fold change (ACY-1035/veh), FGFR1OP (ProbeSet 11751329_s_at) / Fold change (Aza/veh), VPS36 (ProbeSet 11739960_a_at) / Fold change (ACY-1035/veh), VPS36 (ProbeSet 11739960_a_at) / RFU SYPL1 (11715823_x_at) / Fold change /veh SYPL1 (11715823_x_at) / RFU IGFBP7 (11715501_s_at) / Fold change /veh IGFBP7 (11715501_s_at) / RFU REEP3 (11722064_at) / Fold change /veh REEP3 (11722064_at) / RFU IGLL1 (11728026_x_at) / Fold change /veh IGLL1 (11728026_x_at): dose or concentration left out as unconfirmed
Details: ProbeSet 11724877_a_at; LIST D

## Nc1ccc(-c2cccs2)cc1NC(=O)c1ccc2c(c1)cc(C1CC1)n2CCN1CCOCC1 [ACY-1035]
  Fold change vs veh, AEBP2: 1.03
